# Earlier results as cited in PMC10138554, “Insights into the Microbicidal, Antibiofilm, Antioxidant and Toxicity Profile of New O-Aryl-Carbamoyl-Oxymino-Fluorene Derivatives” (International Journal of Molecular Sciences, 2023).
# Test system: Artemia franciscana Kellog nauplii
# Settings: comparison value for brine shrimp toxicity; cited from earlier work
compound,measurement,value
O=P1(N(CCCl)CCCl)NCCCO1 (stereo not shown) [cyclophosphamide],IC50 (toxicity),16.3 µg/mL
